The text below walks through data of patent US20250230147A1, “LACTAMS AS CBL-B INHIBITORS” (Genentech, Inc., priority 2021, published 2025).

Counter-ions that a name gives are not always drawn.

In one test the target is Cbl-b (Homo sapiens (Human), UniProt Q13191). In words: Cbl-b LCK Ub TR-FRET assay (Cbl-b Lck HTRF). Type of test: biochemical. A digest of the protocol: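 TR-FRET (340 nm excitation, 615/665 nm emission) read after adding HA-ubiquitin–UBE2D2 thioester, anti-HA-D2 and streptavidin-Eu. Beforehand, compounds incubated 60 min with biotinylated Cbl-b, then 90 min with His-LCK and ATP (1 mM in 2× mix); IC50 from 10 concentrations, DMSO high and no-LCK low controls.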
Chain of Cbl-b (Q13191 40-426): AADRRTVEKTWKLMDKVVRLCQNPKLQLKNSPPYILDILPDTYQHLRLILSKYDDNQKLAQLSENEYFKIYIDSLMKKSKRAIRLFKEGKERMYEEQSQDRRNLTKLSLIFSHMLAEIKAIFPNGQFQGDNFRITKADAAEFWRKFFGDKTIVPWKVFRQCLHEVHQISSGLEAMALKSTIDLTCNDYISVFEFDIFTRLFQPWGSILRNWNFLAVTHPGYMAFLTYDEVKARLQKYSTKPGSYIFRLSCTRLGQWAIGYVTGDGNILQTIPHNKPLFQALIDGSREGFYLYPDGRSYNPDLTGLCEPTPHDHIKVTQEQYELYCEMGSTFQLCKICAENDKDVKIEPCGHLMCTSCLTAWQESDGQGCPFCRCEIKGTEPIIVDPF
On the technique in general: In TR-FRET formats the signal depends on donor and acceptor labels being close together.

The target in another test is c-Cbl (Homo sapiens (Human), UniProt P22681). In words: C-Cbl LCK Ub TR-FRET assay (c-cbl Lck HTRF). Type of test: biochemical. The settings on record: for (fold-selectivity): C-cbl Lck HTRF IC50 relative to Cbl-b Lck HTRF IC50. Put shortly: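 After the ubiquitination reaction, detection mixture was added and plates incubated 20 min at room temperature before reading. IC50 values were calculated with wells lacking LCK as the low control and DMSO as the high control.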
Chain of c-Cbl (P22681 47-435): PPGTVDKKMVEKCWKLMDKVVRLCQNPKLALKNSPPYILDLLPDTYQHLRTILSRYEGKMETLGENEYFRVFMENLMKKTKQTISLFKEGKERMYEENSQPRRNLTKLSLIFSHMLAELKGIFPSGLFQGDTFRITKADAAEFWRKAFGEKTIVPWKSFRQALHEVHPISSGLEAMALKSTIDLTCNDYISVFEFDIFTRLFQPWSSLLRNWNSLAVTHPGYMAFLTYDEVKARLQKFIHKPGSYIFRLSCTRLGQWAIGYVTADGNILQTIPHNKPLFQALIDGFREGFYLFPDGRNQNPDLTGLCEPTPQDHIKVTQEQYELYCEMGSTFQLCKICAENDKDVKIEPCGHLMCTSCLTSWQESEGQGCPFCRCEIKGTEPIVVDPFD

Take `CN1CCN(Cc2cc3c(c(C(F)(F)F)c2)CN(c2cccc(C4(Cc5nncn5C)CC(F)(F)C4)c2)C3=O)[C@@H](C2CC2)C1` [Compound 402, (S)-6-((2-cyclopropyl-4-methylpiperazin-1-yl)methyl)-2-(3-(3,3-difluoro-1-((4-methyl-4H-1,2,4-triazol-3-yl)methyl)cyclobutyl)phenyl)-4-(trifluoromethyl)isoindolin-1-one]: the IC50 (commonly the concentration at which inhibition is half-maximal) at Cbl-b is 0.039 µM; against c-Cbl, 0.046 µM. Besides, the “(fold-selectivity)” value at c-Cbl is “(1.2x)”.

Turning to `C=CCNc1cc(C2(Cc3nncn3C)CCC2)cc(N2Cc3c(cc(CN4CCN(C)C[C@@H]4C(C)C)cc3C(F)(F)F)C2=O)n1` [Compound 275, (S)-2-(6-(allylamino)-4-(1-((4-methyl-4H-1,2,4-triazol-3-yl)methyl)cyclobutyl)pyridin-2-yl)-6-((2-isopropyl-4-methylpiperazin-1-yl)methyl)-4-(trifluoromethyl)isoindolin-1-one], the half-inhibitory concentration (IC50) against Cbl-b and on c-Cbl was 0.007 µM each time. At c-Cbl, the “(fold-selectivity)” value was “(1.0x)”.

`CN1CCN(Cc2cc3c(c(C(F)(F)F)c2)CN(c2cccc(C4(Cc5nncn5C)CC(F)(F)C4)c2)C3=O)C(C(F)(F)F)C1` (stereo not shown) [Compound 374, 2-(3-(3,3-difluoro-1-((4-methyl-4H-1,2,4-triazol-3-yl)methyl)cyclobutyl)phenyl)-6-((4-methyl-2-(trifluoromethyl)piperazin-1-yl)methyl)-4-(trifluoromethyl)isoindolin-1-one] displayed a 50% inhibitory concentration (IC50) against Cbl-b of 0.1 µM. Besides, on c-Cbl, it took 0.099 µM to reach half-maximal inhibition (IC50) and the “(fold-selectivity)” value is recorded as “(1.0x)”.

On Cbl-b, `COCC1(O)CN(Cc2cc3c(c(C(F)(F)F)c2)CN(c2cccc(C4([C@H](F)c5nncn5C)COC4)c2)C3=O)C1` [Compound 186, (S)-2-(3-(3-(fluoro(4-methyl-4H-1,2,4-triazol-3-yl)methyl)oxetan-3-yl)phenyl)-6-((3-hydroxy-3-(methoxymethyl)azetidin-1-yl)methyl)-4-(trifluoromethyl)isoindolin-1-one] showed an IC50 of 0.11 µM. Further, on c-Cbl, the midpoint of inhibition, the IC50, lay at 0.2 µM and the “(fold-selectivity)” value turned out to be 1.7x.

Compound `Cn1cnnc1[C@H](F)C1(c2cccc(N3Cc4c(cc(CNC5(C)CC5)cc4C(F)(F)F)C3=O)c2)COC1` [Compound 229, (R)-2-(3-(3-(fluoro(4-methyl-4H-1,2,4-triazol-3-yl)methyl)oxetan-3-yl)phenyl)-6-(((1-methylcyclopropyl)amino)methyl)-4-(trifluoromethyl)isoindolin-1-one] displayed a concentration for half-maximal inhibition (IC50) against Cbl-b of 0.012 µM. On c-Cbl, half-maximal inhibition (IC50) was put at 0.01 µM and the “(fold-selectivity)” value is recorded as “(0.83x)”.

Consider `CN1CC(Cc2cc3c(c(C(F)(F)F)c2)CN(c2cccc(C4(Cc5nncn5C)CC(F)(F)C4)c2)C3=O)C1` [Compound 442, 2-(3-(3,3-difluoro-1-((4-methyl-4H-1,2,4-triazol-3-yl)methyl)cyclobutyl)phenyl)-6-((1-methylazetidin-3-yl)methyl)-4-(trifluoromethyl)isoindolin-1-one formate], for which the half-inhibitory concentration (IC50) at Cbl-b was found to be 0.096 µM; on c-Cbl, 0.064 µM.

For `Cn1cnnc1[C@@H](F)C1(c2cccc(N3Cc4c(cc(CN5CC(C)(O)C5)cc4C(F)(F)F)C3=O)c2)CC(F)(F)C1` [Compound 52, (S)-2-(3-(3,3-difluoro-1-(fluoro(4-methyl-4H-1,2,4-triazol-3-yl)methyl)cyclobutyl)-phenyl)-6-((3-hydroxy-3-methylazetidin-1-yl)methyl)-4-(trifluoromethyl)isoindolin-1-one], the IC50 on Cbl-b amounted to 0.062 µM. At c-Cbl, the half-maximal inhibitory concentration (IC50) was 0.13 µM and the “(fold-selectivity)” value worked out at 2.1x.

Regarding `Cn1cnnc1CC1(c2cccc(N3Cc4c(cc(CNC56CC(C)(C5)C6)cc4C(F)(F)F)C3=O)c2)CC(F)(F)C1` [Compound 354, 2-(3-(3,3-difluoro-1-((4-methyl-4H-1,2,4-triazol-3-yl)methyl)cyclobutyl)phenyl)-6-(((3-methylbicyclo[1.1.1]pentan-1-yl)amino)methyl)-4-(trifluoromethyl)isoindolin-1-one formate], the half-maximal inhibitory concentration (IC50) against Cbl-b was 0.013 µM; against c-Cbl, 0.007 µM.

On to `CC(C)[C@H]1CN(CC(F)(F)F)CCN1Cc1cc2c(c(C(F)(F)F)c1)CN(c1cccc(C3([C@@H](F)c4nncn4C)COC3)c1)C2=O` [Compound 202, 2-(3-(3-((R)-fluoro(4-methyl-4H-1,2,4-triazol-3-yl)methyl)oxetan-3-yl)phenyl)-6-(((S)-2-isopropyl-4-(2,2,2-trifluoroethyl)piperazin-1-yl)methyl)-4-(trifluoromethyl)isoindolin-1-one], for which, on Cbl-b, half-maximal inhibition (IC50) was put at 0.15 µM. At c-Cbl, half-maximal inhibition (IC50) required 0.4 µM and the “(fold-selectivity)” value is given as 2.6x.

`Cn1cnnc1[C@H](F)C1(c2cccc(N3Cc4c(cccc4-c4ccccc4)C3=O)c2)COC1` [Compound 210, (R)-2-(3-(3-(fluoro(4-methyl-4H-1,2,4-triazol-3-yl)methyl)oxetan-3-yl)phenyl)-4-phenylisoindolin-1-one]: the half-inhibitory concentration (IC50) at Cbl-b was more than 20 µM. On c-Cbl, the IC50 is more than 20 µM and the “(fold-selectivity)” value amounted to 1.0x.

Turning to `CC(C)[C@H]1CN(Cc2cc3c(c(C(F)(F)F)c2)CN(c2cccc(C4(Cc5nncn5C)CC(F)(F)C4)c2)C3=O)CCN1C` [Compound 439, (S)-2-(3-(3,3-difluoro-1-((4-methyl-4H-1,2,4-triazol-3-yl)methyl)cyclobutyl)phenyl)-6-((3-isopropyl-4-methylpiperazin-1-yl)methyl)-4-(trifluoromethyl)isoindolin-1-one], the IC50 against Cbl-b worked out at 0.012 µM. On c-Cbl, the half-maximal inhibitory concentration (IC50) came out at 0.0071 µM and the “(fold-selectivity)” value was “(0.58x)”.

In turn, `C=CC1(O)CN(Cc2cc3c(c(C(F)(F)F)c2)CN(c2cccc(C4([C@H](F)c5nncn5C)COC4)c2)C3=O)C1` [Compound 170, (S)-2-(3-(3-(fluoro(4-methyl-4H-1,2,4-triazol-3-yl)methyl)oxetan-3-yl)phenyl)-6-((3-hydroxy-3-vinylazetidin-1-yl)methyl)-4-(trifluoromethyl)isoindolin-1-one] returned a 50% inhibitory concentration (IC50) at Cbl-b of 0.14 µM. In addition, on c-Cbl, half-maximal inhibition (IC50) required 0.36 µM and the “(fold-selectivity)” value stood at 2.5x.

For `Cn1cnnc1[C@@H](F)[C@@](C)(F)c1cccc(N2Cc3c(cc(CN4CC(C)(F)C4)cc3C(F)(F)F)C2=O)c1` [Compound 32, 2-(3-((1 R,2S)-1,2-difluoro-1-(4-methyl-4H-1,2,4-triazol-3-yl)propan-2-yl)phenyl)-6-((3-fluoro-3-methylazetidin-1-yl)methyl)-4-(trifluoromethyl)isoindolin-1-one], the IC50 on Cbl-b is 4.5 µM. Also, on c-Cbl, the IC50 came out at 11 µM and the “(fold-selectivity)” value worked out at 2.5x.

On to `Cc1cn(CC2(c3cccc(N4Cc5c(cc(CN6CCN(C)C[C@@H]6C(C)C)cc5C(F)(F)F)C4=O)c3)COC2)nn1` [Compound 257, (S)-6-((2-isopropyl-4-methylpiperazin-1-yl)methyl)-2-(3-(3-((4-methyl-1H-1,2,3-triazol-1-yl)methyl)oxetan-3-yl)phenyl)-4-(trifluoromethyl)isoindolin-1-one], for which the 50% inhibitory concentration (IC50) at Cbl-b was found to be 13 µM; against c-Cbl, 20 µM. Further, the “(fold-selectivity)” value on c-Cbl was “(1.6x)”.

Compound `CC(C)[C@H]1CN(C)CCN1Cc1cc2c(c(C(F)(F)F)c1)CN(c1cccc(C3(Cc4nncn4C)CC(F)(F)C3)c1)C2=O` [Compound 215, (S)-2-(3-(3,3-difluoro-1-((4-methyl-4H-1,2,4-triazol-3-yl)methyl)cyclobutyl)phenyl)-6-((2-isopropyl-4-methylpiperazin-1-yl)methyl)-4-(trifluoromethyl)isoindolin-1-one] came in with an IC50 against Cbl-b of 0.0075 µM. At c-Cbl, the IC50 came to 0.005 µM and the “(fold-selectivity)” value is recorded as 0.66x.

`Cn1cnnc1CC1(c2cc(C3CC3)nc(N3Cc4c(cc(CNC5(C)CCC5)cc4C(F)(F)F)C3=O)c2)COC1` [Compound 300, 2-(6-cyclopropyl-4-(3-((4-methyl-4H-1,2,4-triazol-3-yl)methyl)oxetan-3-yl)pyridin-2-yl)-6-(((1-methylcyclobutyl)amino)methyl)-4-(trifluoromethyl)isoindolin-1-one] displayed an IC50 on Cbl-b of 0.0056 µM. Further, on c-Cbl, 0.0047 µM corresponded to half-maximal inhibition (IC50) and the “(fold-selectivity)” value is reported as “(0.83x)”.

Consider `CCC1(O)CN(Cc2cc3c(c(C(F)(F)F)c2)CN(c2cccc(C4([C@@H](F)c5nncn5C)COC4)c2)C3=O)C1` [Compound 167, (R)-6-((3-ethyl-3-hydroxyazetidin-1-yl)methyl)-2-(3-(3-(fluoro(4-methyl-4H-1,2,4-triazol-3-yl)methyl)oxetan-3-yl)phenyl)-4-(trifluoromethyl)isoindolin-1-one], for which, at Cbl-b, the IC50 was found to be 0.059 µM. On c-Cbl, inhibition was half-maximal at 0.15 µM (IC50) and the “(fold-selectivity)” value amounted to 2.5x.

`Cn1cnnc1[C@@H](F)C1(c2cccc(N3Cc4c(cc(CN5CC6(CCO6)C5)cc4C(F)(F)F)C3=O)c2)COC1` [Compound 140, (S)-6-(1-oxa-6-azaspiro[3.3]heptan-6-ylmethyl)-2-(3-(3-(fluoro(4-methyl-4H-1,2,4-triazol-3-yl)methyl)oxetan-3-yl)phenyl)-4-(trifluoromethyl)isoindolin-1-one] registered a concentration for half-maximal inhibition (IC50) against Cbl-b of 0.38 µM. Besides, at c-Cbl, the IC50 turned out to be 0.97 µM and the “(fold-selectivity)” value was 2.8x.

For `CC(C)[C@H]1CN(C)CCN1Cc1cc2c(c(C(F)(F)F)c1)CN(c1cc(C3(Cc4nncn4C)CC(F)(F)C3)cc(N(C)C)n1)C2=O` [Compound 280, (S)-2-(4-(3,3-difluoro-1-((4-methyl-4H-1,2,4-triazol-3-yl)methyl)cyclobutyl)-6-(dimethylamino)pyridin-2-yl)-6-((2-isopropyl-4-methylpiperazin-1-yl)methyl)-4-(trifluoromethyl)isoindolin-1-one], the figures for the 50% inhibitory concentration (IC50) at Cbl-b and at c-Cbl were 0.012 µM and 0.011 µM, respectively. Also, at c-Cbl, the “(fold-selectivity)” value is “(0.96x)”.
